# Source: PubChem BioAssay AID1963841 (Molecular Pharmacology Branch, DTP, NCI, 2024)
# Tested on: 439559-082-T-J2-PDC spheroid viability
# Test: Anticancer human tumor 439559-082-T-J2-PDC patient-derived colon adenocarcinoma cell line growth inhibition [POLQ]
# Settings: spheroids with HUVEC and MSC; for IC50: curve of first compound; for viability, T/C: stronger effect = lower value
# Outline: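 Patient-derived tumour cells were co-cultured with HUVEC and mesenchymal stem cells as multicellular spheroids at 37 °C. They were treated with POLQ inhibitors (novobiocin, ART-558, RP6685) alone or combined with other agents. Top concentrations were at or near clinical Cmax (otherwise 10 microM; SN-38 at 1 microM), decreasing in half-log steps.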
# [1] = second compound 0.0316 µM, first compound 0.0316 µM
# [2] = second compound 0.0316 µM, first compound 0.1 µM
# [3] = second compound 0.0316 µM, first compound 0.316 µM
# [4] = second compound 0.0316 µM, first compound 1 µM
# [5] = second compound 0.0316 µM, first compound 3.16 µM
# [6] = second compound 0.0316 µM, first compound 10 µM
# [7] = second compound 0.1 µM, first compound 0.0316 µM
# [8] = second compound 0.1 µM, first compound 0.1 µM
# [9] = second compound 0.1 µM, first compound 0.316 µM
# [10] = second compound 0.1 µM, first compound 1 µM
# [11] = second compound 0.1 µM, first compound 3.16 µM
# [12] = second compound 0.1 µM, first compound 10 µM
# [13] = second compound 0.316 µM, first compound 0.0316 µM
# [14] = second compound 0.316 µM, first compound 0.1 µM
# [15] = second compound 0.316 µM, first compound 0.316 µM
# [16] = second compound 0.316 µM, first compound 1 µM
# [17] = second compound 0.316 µM, first compound 3.16 µM
# [18] = second compound 0.316 µM, first compound 10 µM
# [19] = second compound 1 µM, first compound 0.0316 µM
# [20] = second compound 1 µM, first compound 0.1 µM
# [21] = second compound 1 µM, first compound 0.316 µM
# [22] = second compound 1 µM, first compound 1 µM
# [23] = second compound 1 µM, first compound 3.16 µM
# [24] = second compound 1 µM, first compound 10 µM
# [25] = second compound 3.16 µM, first compound 0.0316 µM
# [26] = second compound 3.16 µM, first compound 0.1 µM
# [27] = second compound 3.16 µM, first compound 0.316 µM
# [28] = second compound 3.16 µM, first compound 1 µM
# [29] = second compound 3.16 µM, first compound 3.16 µM
# [30] = second compound 3.16 µM, first compound 10 µM
# [31] = second compound 10 µM, first compound 0.0316 µM
# [32] = second compound 10 µM, first compound 0.1 µM
# [33] = second compound 10 µM, first compound 0.316 µM
# [34] = second compound 10 µM, first compound 1 µM
# [35] = second compound 10 µM, first compound 3.16 µM
# [36] = second compound 10 µM, first compound 10 µM
# 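Further: spheroids exposed to compounds for seven days before readout.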
# 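Wherever viability, T/C is given: 100% = DMSO vehicle control viability.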
smiles,measurement,setting,value
C#Cc1c(F)ccc2cc(O)cc(-c3ncc4c(N5CC6CCC(C5)N6)nc(OCC56CCCN5CC(F)C6)nc4c3F)c12 (stereo not drawn) + COC1C(OC(N)=O)C(O)C(Oc2ccc3c(O)c(NC(=O)c4ccc(O)c(CC=C(C)C)c4)c(=O)oc3c2C)OC1(C)C,IC50,second compound 0.0316 µM,> 10 µM
same,IC50,second compound 0.1 µM,> 10 µM
same,IC50,second compound 0.316 µM,> 10 µM
same,IC50,second compound 1 µM,> 10 µM
same,IC50,second compound 3.16 µM,> 10 µM
same,IC50,second compound 10 µM,> 10 µM
same,"viability, T/C",[1],87.5%
same,"viability, T/C",[2],90.6%
same,"viability, T/C",[3],73.8%
same,"viability, T/C",[4],69.2%
same,"viability, T/C",[5],58.4%
same,"viability, T/C",[6],50.3%
same,"viability, T/C",[7],96%
same,"viability, T/C",[8],89.1%
same,"viability, T/C",[9],80%
same,"viability, T/C",[10],68.9%
same,"viability, T/C",[11],59.7%
same,"viability, T/C",[12],52.1%
same,"viability, T/C",[13],101%
same,"viability, T/C",[14],84.8%
same,"viability, T/C",[15],75.8%
same,"viability, T/C",[16],67.7%
same,"viability, T/C",[17],61.1%
same,"viability, T/C",[18],51.1%
same,"viability, T/C",[19],96.5%
same,"viability, T/C",[20],88%
same,"viability, T/C",[21],75%
same,"viability, T/C",[22],63.9%
same,"viability, T/C",[23],57.4%
same,"viability, T/C",[24],49.8%
same,"viability, T/C",[25],97.2%
same,"viability, T/C",[26],93.9%
same,"viability, T/C",[27],70.4%
same,"viability, T/C",[28],63.9%
same,"viability, T/C",[29],60.6%
same,"viability, T/C",[30],49%
same,"viability, T/C",[31],103%
same,"viability, T/C",[32],92.1%
same,"viability, T/C",[33],73.5%
same,"viability, T/C",[34],67.2%
same,"viability, T/C",[35],64.4%
same,"viability, T/C",[36],49.6%
CC1COCCN1c1cc(C2(O)CC3CCC(C2)O3)c2cnn(-c3ccn[nH]3)c2n1 (stereo not drawn) + COC1C(OC(N)=O)C(O)C(Oc2ccc3c(O)c(NC(=O)c4ccc(O)c(CC=C(C)C)c4)c(=O)oc3c2C)OC1(C)C,IC50,second compound 0.0316 µM,2.58 µM
same,IC50,second compound 0.1 µM,2.62 µM
same,IC50,second compound 0.316 µM,2.08 µM
same,IC50,second compound 1 µM,1.92 µM
same,IC50,second compound 3.16 µM,1.84 µM
same,IC50,second compound 10 µM,1.25 µM
same,"viability, T/C",[1],97%
same,"viability, T/C",[2],89.6%
same,"viability, T/C",[3],67.5%
same,"viability, T/C",[4],58.4%
same,"viability, T/C",[5],48.7%
same,"viability, T/C",[6],45.1%
same,"viability, T/C",[7],95.1%
same,"viability, T/C",[8],86.9%
same,"viability, T/C",[9],68.4%
same,"viability, T/C",[10],58.3%
same,"viability, T/C",[11],46.9%
same,"viability, T/C",[12],46.8%
same,"viability, T/C",[13],99%
same,"viability, T/C",[14],83.1%
same,"viability, T/C",[15],69.9%
same,"viability, T/C",[16],56.8%
same,"viability, T/C",[17],42.2%
same,"viability, T/C",[18],46.3%
same,"viability, T/C",[19],93.6%
same,"viability, T/C",[20],89.5%
same,"viability, T/C",[21],66.5%
same,"viability, T/C",[22],56.1%
same,"viability, T/C",[23],48.2%
same,"viability, T/C",[24],42.4%
same,"viability, T/C",[25],89.2%
same,"viability, T/C",[26],85%
same,"viability, T/C",[27],65.3%
same,"viability, T/C",[28],54.3%
same,"viability, T/C",[29],47.9%
same,"viability, T/C",[30],45.5%
same,"viability, T/C",[31],89.1%
same,"viability, T/C",[32],87.4%
same,"viability, T/C",[33],66.4%
same,"viability, T/C",[34],52.5%
same,"viability, T/C",[35],46.7%
same,"viability, T/C",[36],44.8%
O=C(Nc1ccc(O)c(NS(=O)(=O)c2ccc(F)cc2)c1)c1ccc(-c2ccccc2)cc1 + COC1C(OC(N)=O)C(O)C(Oc2ccc3c(O)c(NC(=O)c4ccc(O)c(CC=C(C)C)c4)c(=O)oc3c2C)OC1(C)C,IC50,second compound 0.0316 µM,> 10 µM
same,IC50,second compound 0.1 µM,> 10 µM
same,IC50,second compound 0.316 µM,> 10 µM
same,IC50,second compound 1 µM,> 10 µM
same,IC50,second compound 3.16 µM,> 10 µM
same,IC50,second compound 10 µM,> 10 µM
same,"viability, T/C",[1],93.1%
same,"viability, T/C",[2],94.8%
same,"viability, T/C",[3],94.1%
same,"viability, T/C",[4],97.9%
same,"viability, T/C",[5],106%
same,"viability, T/C",[6],101%
same,"viability, T/C",[7],98.8%
same,"viability, T/C",[8],99.4%
same,"viability, T/C",[9],102%
same,"viability, T/C",[10],107%
same,"viability, T/C",[11],103%
same,"viability, T/C",[12],97.3%
same,"viability, T/C",[13],99.3%
same,"viability, T/C",[14],99.9%
same,"viability, T/C",[15],99.8%
same,"viability, T/C",[16],97%
same,"viability, T/C",[17],104%
same,"viability, T/C",[18],102%
same,"viability, T/C",[19],102%
same,"viability, T/C",[20],98.4%
same,"viability, T/C",[21],93.5%
same,"viability, T/C",[22],103%
same,"viability, T/C",[23],104%
same,"viability, T/C",[24],89.8%
same,"viability, T/C",[25],107%
same,"viability, T/C",[26],93.2%
same,"viability, T/C",[27],92.3%
same,"viability, T/C",[28],96.5%
same,"viability, T/C",[29],99.8%
same,"viability, T/C",[30],98.3%
same,"viability, T/C",[31],97.2%
same,"viability, T/C",[32],98.7%
same,"viability, T/C",[33],102%
same,"viability, T/C",[34],103%
same,"viability, T/C",[35],101%
same,"viability, T/C",[36],104%
CC(=O)O[C@H]1C(=O)[C@@]2(C)[C@H]([C@H](OC(=O)c3ccccc3)[C@]3(O)C[C@H](OC(=O)[C@H](O)[C@@H](NC(=O)c4ccccc4)c4ccccc4)C(C)=C1C3(C)C)[C@]1(OC(C)=O)CO[C@@H]1C[C@@H]2O + Cc1cccc(N(C)C(=O)C2C(O)CCN2c2nc(C)cc(C(F)(F)F)c2C#N)c1,IC50,second compound 0.0316 µM,2.19 µM
same,IC50,second compound 0.1 µM,1.78 µM
same,IC50,second compound 0.316 µM,1.9 µM
same,IC50,second compound 1 µM,1.71 µM
same,IC50,second compound 3.16 µM,1.43 µM
same,IC50,second compound 10 µM,0.469 µM
same,"viability, T/C","second compound 0.0316 µM, first compound 0.00949 µM",77.2%
same,"viability, T/C","second compound 0.0316 µM, first compound 0.03 µM",78.5%
same,"viability, T/C","second compound 0.0316 µM, first compound 0.0949 µM",84.2%
same,"viability, T/C","second compound 0.0316 µM, first compound 0.3 µM",81.3%
same,"viability, T/C","second compound 0.0316 µM, first compound 0.949 µM",70.5%
same,"viability, T/C","second compound 0.0316 µM, first compound 3 µM",41.5%
same,"viability, T/C","second compound 0.1 µM, first compound 0.00949 µM",81.9%
same,"viability, T/C","second compound 0.1 µM, first compound 0.03 µM",84.4%
same,"viability, T/C","second compound 0.1 µM, first compound 0.0949 µM",77.4%
same,"viability, T/C","second compound 0.1 µM, first compound 0.3 µM",72.7%
same,"viability, T/C","second compound 0.1 µM, first compound 0.949 µM",66.4%
same,"viability, T/C","second compound 0.1 µM, first compound 3 µM",37.8%
same,"viability, T/C","second compound 0.316 µM, first compound 0.00949 µM",85.4%
same,"viability, T/C","second compound 0.316 µM, first compound 0.03 µM",86.6%
same,"viability, T/C","second compound 0.316 µM, first compound 0.0949 µM",78.5%
same,"viability, T/C","second compound 0.316 µM, first compound 0.3 µM",74.6%
same,"viability, T/C","second compound 0.316 µM, first compound 0.949 µM",61%
same,"viability, T/C","second compound 0.316 µM, first compound 3 µM",42.6%
same,"viability, T/C","second compound 1 µM, first compound 0.00949 µM",92%
same,"viability, T/C","second compound 1 µM, first compound 0.03 µM",82%
same,"viability, T/C","second compound 1 µM, first compound 0.0949 µM",79.4%
same,"viability, T/C","second compound 1 µM, first compound 0.3 µM",75.2%
same,"viability, T/C","second compound 1 µM, first compound 0.949 µM",65.2%
same,"viability, T/C","second compound 1 µM, first compound 3 µM",36.9%
same,"viability, T/C","second compound 3.16 µM, first compound 0.00949 µM",77.1%
same,"viability, T/C","second compound 3.16 µM, first compound 0.03 µM",71.5%
same,"viability, T/C","second compound 3.16 µM, first compound 0.0949 µM",74.1%
same,"viability, T/C","second compound 3.16 µM, first compound 0.3 µM",70.4%
same,"viability, T/C","second compound 3.16 µM, first compound 0.949 µM",55%
same,"viability, T/C","second compound 3.16 µM, first compound 3 µM",37.4%
same,"viability, T/C","second compound 10 µM, first compound 0.00949 µM",85.1%
same,"viability, T/C","second compound 10 µM, first compound 0.03 µM",74.2%
same,"viability, T/C","second compound 10 µM, first compound 0.0949 µM",74.4%
same,"viability, T/C","second compound 10 µM, first compound 0.3 µM",51.9%
same,"viability, T/C","second compound 10 µM, first compound 0.949 µM",44.4%
same,"viability, T/C","second compound 10 µM, first compound 3 µM",36.8%
